# Activity calls are given as the source filed them.
# Key:
# [1] = target: T1, Protein RecA (Mycobacterium tuberculosis, UniProt P9WHJ3); assay: Fluorescence Cell-Free Homogeneous Dose Retest to Identify Inhibitors of RecA-Intein Splicing Activity. [Related pubchem assays (depositor defined):AID2097, AID2223, AID489010, AID492950]; assay type: functional
# T1 sequence (P9WHJ3 whole entry): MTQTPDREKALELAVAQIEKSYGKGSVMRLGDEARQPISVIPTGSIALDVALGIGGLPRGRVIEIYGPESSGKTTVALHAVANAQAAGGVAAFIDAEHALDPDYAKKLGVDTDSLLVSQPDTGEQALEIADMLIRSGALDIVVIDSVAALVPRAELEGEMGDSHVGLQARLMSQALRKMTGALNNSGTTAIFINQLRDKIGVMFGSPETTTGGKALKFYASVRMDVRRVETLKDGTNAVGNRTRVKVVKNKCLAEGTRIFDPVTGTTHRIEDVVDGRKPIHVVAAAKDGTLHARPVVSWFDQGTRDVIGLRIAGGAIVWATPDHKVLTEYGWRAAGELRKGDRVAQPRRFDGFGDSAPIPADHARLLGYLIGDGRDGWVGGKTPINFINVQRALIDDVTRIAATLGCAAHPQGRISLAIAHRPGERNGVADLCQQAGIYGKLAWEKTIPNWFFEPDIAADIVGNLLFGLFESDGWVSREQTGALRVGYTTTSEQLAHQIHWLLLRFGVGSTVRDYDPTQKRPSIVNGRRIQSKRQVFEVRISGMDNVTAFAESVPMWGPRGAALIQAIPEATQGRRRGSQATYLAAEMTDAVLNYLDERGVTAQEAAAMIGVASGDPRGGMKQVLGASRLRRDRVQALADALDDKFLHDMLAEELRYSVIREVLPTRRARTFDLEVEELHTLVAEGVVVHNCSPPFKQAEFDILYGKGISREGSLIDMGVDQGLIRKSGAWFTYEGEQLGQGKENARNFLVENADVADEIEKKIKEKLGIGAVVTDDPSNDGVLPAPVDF
# [2] = target: Transthyretin (Homo sapiens, UniProt P02766); assay: Luminescence-based cell-based high throughput dose response assay to identify activators of Transthyretin (TTR) transcription.; assay type: functional
# [3] = target: T2, Replicative DNA helicase DnaB (Mycobacterium tuberculosis, UniProt P9WMR3); assay: DnaB intein splicing inhibitors, dose response, biochemical, cell-free fluorescence (AID 449749); assay type: functional
# T2 sequence (P9WMR3 whole entry): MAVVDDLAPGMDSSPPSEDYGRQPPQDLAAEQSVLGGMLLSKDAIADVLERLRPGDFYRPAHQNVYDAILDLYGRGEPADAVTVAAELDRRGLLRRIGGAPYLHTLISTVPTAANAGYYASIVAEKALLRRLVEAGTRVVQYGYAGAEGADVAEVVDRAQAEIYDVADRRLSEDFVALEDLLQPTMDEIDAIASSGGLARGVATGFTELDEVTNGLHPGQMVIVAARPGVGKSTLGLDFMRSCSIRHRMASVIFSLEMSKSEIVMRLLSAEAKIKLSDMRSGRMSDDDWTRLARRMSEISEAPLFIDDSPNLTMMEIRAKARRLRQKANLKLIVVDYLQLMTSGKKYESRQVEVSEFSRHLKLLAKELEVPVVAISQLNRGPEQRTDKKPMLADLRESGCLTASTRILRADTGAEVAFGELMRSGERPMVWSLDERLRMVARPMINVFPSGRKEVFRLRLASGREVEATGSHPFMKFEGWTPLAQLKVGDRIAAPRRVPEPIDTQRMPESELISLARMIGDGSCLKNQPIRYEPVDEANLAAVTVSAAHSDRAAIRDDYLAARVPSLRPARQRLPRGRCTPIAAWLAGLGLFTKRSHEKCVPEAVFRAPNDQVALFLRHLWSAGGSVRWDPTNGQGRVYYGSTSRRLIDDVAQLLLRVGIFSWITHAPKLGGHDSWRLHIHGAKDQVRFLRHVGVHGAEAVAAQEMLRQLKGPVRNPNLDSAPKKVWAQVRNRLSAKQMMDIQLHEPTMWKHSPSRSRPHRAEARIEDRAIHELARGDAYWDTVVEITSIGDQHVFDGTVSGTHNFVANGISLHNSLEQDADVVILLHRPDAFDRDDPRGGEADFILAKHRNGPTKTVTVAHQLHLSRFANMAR
# [4] = target: T3, Bcl-2-related protein A1 (Mus musculus, UniProt Q07440); assay: Bfl-1 inhibitors blocking BH3 peptide binding, confirmation, biochemical, TR-FRET, mouse Bfl-1 (AID 621);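 further: TR-FRET binding of GST-Bfl-1 to FITC-labelled Bid peptide via terbium antibody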
# T3 sequence (Q07440 whole entry): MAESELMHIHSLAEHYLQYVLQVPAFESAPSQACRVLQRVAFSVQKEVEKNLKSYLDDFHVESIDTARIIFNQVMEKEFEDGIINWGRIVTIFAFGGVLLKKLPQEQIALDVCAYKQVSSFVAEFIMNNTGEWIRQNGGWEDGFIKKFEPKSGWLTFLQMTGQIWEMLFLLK
# [5] = target: T3, Bcl-2-related protein A1; assay: Bfl-1 inhibitors, primary screen, biochemical, fluorescence polarization, FITC-Bid, mouse (AID 432)
# [6] = P. falciparum late gametocyte killing, dose response, luminescence (AID 1117278); assay type: functional, cell-based;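 further: gametocytes exposed to compound for 24 hours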
# [7] = Jurkat T cell cytotoxicity, dose response, cytotoxicity control for P. falciparum gametocyte viability project, luminescence (AID 1117277); assay type: functional, cell-based;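 further: potency reflects loss of cellular ATP meaning fewer viable cells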
# [8] = target: T4, Fatty acid synthase (Homo sapiens, UniProt P49327); assay: FAS thioesterase domain inhibitors, dose response, biochemical, kinetic fluorescence intensity (AID 624326); assay type: functional;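 further: rate of fluorescence rise from hydrolysis of a fluorogenic O-methyl fluorescein ester substrate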
# T4 sequence (P49327 whole entry, the tested form may be a part): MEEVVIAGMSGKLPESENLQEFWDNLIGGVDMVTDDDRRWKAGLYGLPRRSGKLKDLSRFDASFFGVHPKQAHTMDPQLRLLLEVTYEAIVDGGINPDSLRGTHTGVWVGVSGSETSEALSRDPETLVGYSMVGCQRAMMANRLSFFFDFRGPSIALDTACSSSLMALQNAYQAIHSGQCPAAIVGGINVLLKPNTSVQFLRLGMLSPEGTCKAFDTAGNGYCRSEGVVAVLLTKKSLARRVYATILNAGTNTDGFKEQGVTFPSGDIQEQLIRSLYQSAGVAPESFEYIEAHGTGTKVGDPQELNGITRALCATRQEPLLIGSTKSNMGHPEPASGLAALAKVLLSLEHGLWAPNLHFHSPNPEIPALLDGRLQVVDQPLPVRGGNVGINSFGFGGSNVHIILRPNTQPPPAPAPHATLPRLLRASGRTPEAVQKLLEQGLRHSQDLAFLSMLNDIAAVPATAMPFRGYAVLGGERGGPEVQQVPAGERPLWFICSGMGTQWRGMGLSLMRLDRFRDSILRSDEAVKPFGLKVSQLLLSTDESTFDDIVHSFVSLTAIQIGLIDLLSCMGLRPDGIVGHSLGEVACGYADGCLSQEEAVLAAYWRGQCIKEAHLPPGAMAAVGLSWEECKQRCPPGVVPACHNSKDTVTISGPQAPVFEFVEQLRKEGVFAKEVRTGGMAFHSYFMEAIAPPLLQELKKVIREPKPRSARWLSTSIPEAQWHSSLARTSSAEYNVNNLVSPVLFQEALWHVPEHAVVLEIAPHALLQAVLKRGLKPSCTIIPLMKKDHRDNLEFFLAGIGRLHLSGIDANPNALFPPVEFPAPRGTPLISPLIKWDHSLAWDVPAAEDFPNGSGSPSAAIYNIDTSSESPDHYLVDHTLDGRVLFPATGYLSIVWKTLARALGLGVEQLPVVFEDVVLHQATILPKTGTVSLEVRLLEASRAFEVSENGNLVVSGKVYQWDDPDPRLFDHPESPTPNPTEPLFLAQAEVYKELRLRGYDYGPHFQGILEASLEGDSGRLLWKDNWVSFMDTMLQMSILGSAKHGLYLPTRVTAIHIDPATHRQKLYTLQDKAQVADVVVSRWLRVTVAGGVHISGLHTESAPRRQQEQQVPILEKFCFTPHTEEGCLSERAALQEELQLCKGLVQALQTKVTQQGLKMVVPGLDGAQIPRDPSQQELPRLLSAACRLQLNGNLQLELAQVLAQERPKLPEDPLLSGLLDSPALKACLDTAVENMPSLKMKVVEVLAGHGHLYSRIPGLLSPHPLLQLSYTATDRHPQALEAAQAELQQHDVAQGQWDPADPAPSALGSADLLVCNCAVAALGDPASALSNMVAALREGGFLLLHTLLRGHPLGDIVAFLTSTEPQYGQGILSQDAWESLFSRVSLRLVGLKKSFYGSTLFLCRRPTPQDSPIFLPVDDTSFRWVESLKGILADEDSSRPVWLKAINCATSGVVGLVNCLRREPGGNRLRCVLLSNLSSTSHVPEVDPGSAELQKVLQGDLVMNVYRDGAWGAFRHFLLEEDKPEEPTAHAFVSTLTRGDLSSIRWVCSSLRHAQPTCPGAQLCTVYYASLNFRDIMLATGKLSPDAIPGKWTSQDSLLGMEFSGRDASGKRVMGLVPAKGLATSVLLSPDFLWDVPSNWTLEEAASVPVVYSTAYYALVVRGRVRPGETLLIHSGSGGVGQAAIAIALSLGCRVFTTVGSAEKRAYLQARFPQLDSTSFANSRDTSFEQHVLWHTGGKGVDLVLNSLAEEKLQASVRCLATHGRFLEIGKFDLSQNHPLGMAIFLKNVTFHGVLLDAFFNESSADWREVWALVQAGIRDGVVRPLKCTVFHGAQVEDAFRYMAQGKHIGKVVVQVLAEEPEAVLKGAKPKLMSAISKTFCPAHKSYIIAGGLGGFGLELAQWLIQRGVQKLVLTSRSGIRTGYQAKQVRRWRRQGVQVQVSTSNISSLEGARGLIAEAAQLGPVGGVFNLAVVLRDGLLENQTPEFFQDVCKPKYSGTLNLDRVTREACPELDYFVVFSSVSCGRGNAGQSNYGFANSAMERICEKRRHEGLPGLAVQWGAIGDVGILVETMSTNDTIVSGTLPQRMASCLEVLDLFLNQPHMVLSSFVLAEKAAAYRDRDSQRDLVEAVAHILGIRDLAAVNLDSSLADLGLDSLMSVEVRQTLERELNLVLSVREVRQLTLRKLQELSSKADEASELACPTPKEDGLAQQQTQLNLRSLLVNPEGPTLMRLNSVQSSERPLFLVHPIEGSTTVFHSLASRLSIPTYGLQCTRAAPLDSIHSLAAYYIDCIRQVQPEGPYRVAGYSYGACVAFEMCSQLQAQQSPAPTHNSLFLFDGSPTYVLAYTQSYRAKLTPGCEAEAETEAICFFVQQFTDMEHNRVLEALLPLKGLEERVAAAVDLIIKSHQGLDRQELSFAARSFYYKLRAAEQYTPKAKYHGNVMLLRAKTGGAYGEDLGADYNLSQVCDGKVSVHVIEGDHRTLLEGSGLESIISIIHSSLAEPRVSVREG
# [9] = cells; assay type: functional, cell-based
# [10] = target: E3 ubiquitin-protein ligase Mdm2 (Homo sapiens, UniProt Q00987); assay: enhancers of MDM2-luciferase reporter signal, concentration-effect titration, project on inhibitors of MDM2 ubiquitin ligase, cellular assay, luminescent readout, 384-well plate format (AID 1394); assay type: functional;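 further: MDM2 E3 inhibitors raise luminescence so EC50 is for signal enhancement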
# Sequence of E3 ubiquitin-protein ligase Mdm2 (Q00987 whole entry): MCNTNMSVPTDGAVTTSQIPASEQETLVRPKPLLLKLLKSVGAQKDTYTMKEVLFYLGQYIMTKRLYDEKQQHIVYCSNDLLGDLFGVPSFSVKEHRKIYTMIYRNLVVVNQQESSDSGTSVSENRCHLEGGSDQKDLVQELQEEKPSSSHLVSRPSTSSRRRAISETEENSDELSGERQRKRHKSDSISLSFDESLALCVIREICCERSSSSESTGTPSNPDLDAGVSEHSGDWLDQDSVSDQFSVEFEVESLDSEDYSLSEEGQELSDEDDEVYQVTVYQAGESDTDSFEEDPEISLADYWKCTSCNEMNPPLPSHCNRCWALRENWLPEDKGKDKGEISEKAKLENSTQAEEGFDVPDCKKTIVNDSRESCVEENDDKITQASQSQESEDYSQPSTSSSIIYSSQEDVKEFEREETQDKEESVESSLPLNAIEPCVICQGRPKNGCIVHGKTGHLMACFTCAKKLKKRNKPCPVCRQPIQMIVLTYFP
# [11] = cells; assay type: functional, cell-based; remark: listed apart in the source
# [12] = target: T4, Fatty acid synthase; assay: FAS thioesterase domain inhibitors, dose response, biochemical, endpoint fluorescence intensity, uHTS hits (AID 624327); assay type: functional;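 further: fluorescence from hydrolysis of an O-methyl fluorescein acyl ester substrate by the enzyme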
compound,measurement,setting,value
COc1ccc2[nH]c3c(Cl)ncnc3c2c1,EC50,[1],> 380 µM (inactive)
same,EC50,[2],> 167 µM (inactive)
same,AC50,[3],> 380 µM (inactive)
Cc1nn(C)c(C)c1NC(=O)CSc1nc(-c2ccccc2F)nc2c1cnn2-c1ccccc1,IC50,[4],> 100 µM (not active)
same,IC50,[5],> 100 µM (not active)
NC(=O)C1CCN(C(=O)CN2CCc3ccccc32)CC1,IC50,[6],> 109 µM (inactive)
same,IC50,[7],> 83.3 µM (inactive)
COCCn1/c(=N/C(=O)c2ccc(S(=O)(=O)N3CCCc4ccccc43)cc2)sc2cc(S(C)(=O)=O)ccc21,IC50,[8],64.5 µM (inactive)
same,EC50,[9],> 350 µM (not active)
same,EC50,[10],1.03 µM (not active)
same,EC50,[11],298 µM (active)
same,IC50,[12],45.9 µM (inactive)
CC(=O)Nc1ccc(S(=O)(=O)N2CCN=C2SCc2cccnc2)cc1,EC50,[10],9.39 µM (not active)
